Source: US10934277B2, “Enantiomerically purified GPER agonist for use in treating disease states and conditions” (Linnaeus Therapeutics, Inc., priority 2018, dated 2021)
Values joined by “and” are separate entries in the source; they are usually repeats but may differ in a detail not shown here. Equal entries are not always repeated.

What was measured:
AR = biological target: T1, AR (Homo sapiens, UniProt P10275); test: Off target selectivity assay, Nuclear Hormone Receptor AR
T1 sequence (P10275 1-920): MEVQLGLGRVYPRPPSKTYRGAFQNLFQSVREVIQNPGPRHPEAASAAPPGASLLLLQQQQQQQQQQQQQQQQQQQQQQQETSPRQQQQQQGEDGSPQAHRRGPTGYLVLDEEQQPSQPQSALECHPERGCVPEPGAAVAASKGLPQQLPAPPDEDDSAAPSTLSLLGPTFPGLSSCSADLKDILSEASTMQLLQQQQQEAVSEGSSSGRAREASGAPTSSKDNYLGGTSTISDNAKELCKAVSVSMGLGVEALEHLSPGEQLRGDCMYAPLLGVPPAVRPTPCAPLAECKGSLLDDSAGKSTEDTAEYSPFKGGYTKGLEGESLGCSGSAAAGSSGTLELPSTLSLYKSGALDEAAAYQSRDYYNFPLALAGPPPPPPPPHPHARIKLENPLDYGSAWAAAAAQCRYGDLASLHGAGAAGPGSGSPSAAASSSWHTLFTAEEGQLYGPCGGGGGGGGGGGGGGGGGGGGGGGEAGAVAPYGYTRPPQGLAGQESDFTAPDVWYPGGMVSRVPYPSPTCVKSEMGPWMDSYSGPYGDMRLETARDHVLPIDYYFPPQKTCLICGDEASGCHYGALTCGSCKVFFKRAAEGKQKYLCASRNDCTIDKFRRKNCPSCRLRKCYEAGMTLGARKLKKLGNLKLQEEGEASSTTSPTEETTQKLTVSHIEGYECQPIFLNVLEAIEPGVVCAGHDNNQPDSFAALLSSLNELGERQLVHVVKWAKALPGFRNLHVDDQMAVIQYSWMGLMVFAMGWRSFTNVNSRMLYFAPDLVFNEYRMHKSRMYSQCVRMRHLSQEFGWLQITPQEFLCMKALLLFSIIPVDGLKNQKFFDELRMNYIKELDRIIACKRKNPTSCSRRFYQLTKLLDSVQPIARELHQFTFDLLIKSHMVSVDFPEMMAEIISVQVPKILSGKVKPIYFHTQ

OATP1B1 = biological target: T2, OATP1B1 (Homo sapiens, UniProt Q9Y6L6); test: Drug transporter fluorometric inhibition, OATP1B1; assay type: in vitro ADME
T2 sequence (Q9Y6L6 1-691): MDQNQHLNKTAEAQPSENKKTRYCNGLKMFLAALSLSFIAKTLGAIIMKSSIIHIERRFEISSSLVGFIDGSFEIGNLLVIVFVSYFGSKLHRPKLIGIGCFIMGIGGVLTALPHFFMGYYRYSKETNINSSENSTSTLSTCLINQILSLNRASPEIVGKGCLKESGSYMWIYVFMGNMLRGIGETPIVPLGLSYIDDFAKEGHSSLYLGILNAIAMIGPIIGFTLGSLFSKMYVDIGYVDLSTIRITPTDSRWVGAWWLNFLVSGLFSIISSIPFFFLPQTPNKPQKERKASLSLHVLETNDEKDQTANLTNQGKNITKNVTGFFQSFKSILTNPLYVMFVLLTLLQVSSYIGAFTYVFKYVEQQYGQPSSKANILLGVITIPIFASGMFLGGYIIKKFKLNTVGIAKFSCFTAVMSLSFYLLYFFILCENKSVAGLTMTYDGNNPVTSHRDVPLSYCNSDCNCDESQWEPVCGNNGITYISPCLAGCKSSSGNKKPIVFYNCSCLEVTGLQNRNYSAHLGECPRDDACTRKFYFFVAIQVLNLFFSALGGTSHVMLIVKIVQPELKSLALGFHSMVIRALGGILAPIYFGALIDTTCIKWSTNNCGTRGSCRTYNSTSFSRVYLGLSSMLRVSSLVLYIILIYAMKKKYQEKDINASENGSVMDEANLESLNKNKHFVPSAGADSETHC
Procedure: Drug transporter (fluorometric inhibition)
The percent of control was calculated using the following equation. The percent of inhibition was calculated by subtracting the percent of control from 100. The IC50 value (concentration causing a half-maximal inhibition of the control value) was determined by non-linear regression analysis of the concentration-response curve using the Hill equation.
Compound is the individual reading in the presence of the test compound. T1 is the mean reading in the absence of the test compound. Background (for P-gp and BCRP) is the mean reading in the presence of the highest effective concentration of the reference inhibitor. Background (for OATP1B1, OATP1B3, OAT1, OAT3, and OCT2) is the mean reading in the absence of both the test compound and the substrate.

YUMM1.7 melanoma cells = test: YUMM1.7 proliferation assay (4 day growth); assay type: cell-based; conditions: 500 nM; for doubling compared with that seen with the vehicle / Doublings: 4 days; for Doublings / cell count after 4 days of growth (single replicates) / average cell count after 4 days of growth: starting cell number 15,000; for cell count after 4 days of growth (single replicates): 5 replicates; for average cell count after 4 days of growth: average of 5 replicates
Procedure: YUMM1.7 cells were cultured for at least 1 passage after thawing and were cultured in DMEM with 5% FBS (Invitrogen) and 1% antibiotic-antimycotic (gibco) at 37C 5% CO2. Proliferation assays were performed by plating 15,000 cells in 12-well plates with 5 replicates per condition tested. Media and drugs were refreshed on Day 2. On Day 4, cells were trypsinized using 0.25 ml 0.05% Trypsin with EDTA (Invitrogen) for 5 minutes to detach from the plate, mixed with 0.75 ml of culture media, and counted using a hemocytometer.
Starting cell numbers were 15,000.

CYP1A2 = test: Cytochrome P450 induction in hepatocytes, CYP1A2; assay type: in vitro ADME; conditions: hepatocytes from three different human cell lines; 1 μM, 10 μM and 100 μM
HTR2B = HTR2B (Homo sapiens, UniProt P41595); test: Off target selectivity assay, HTR2B; assay type: cell-based; conditions: dose response, concentrations up to 10 μM; read-out: IC50 or EC50 on HTR2B
Procedure: Final assay vehicle concentration was 1%.
For Gi coupled GPCRs, EC80 forskolin was included.
DMSO concentration for all readouts is ≤0.2%.
Probenicid was prepared fresh. Cells were loaded with dye prior to testing.

[1] = Plasma concentration of SRR G-1 in rats after oral dosing (LC-MS/MS); assay type: in vivo; conditions: rat, individual animals (R1-R9); for Plasma Conc.: PO 10 mg/kg, listed as SRR G-1 Free Base
Text: The results are shown in Tables 22-24 for each respectively.

CYP3A4 = test: Cytochrome P450 induction in hepatocytes, CYP3A4; assay type: in vitro ADME; conditions: hepatocytes from three different human cell lines; 1 μM, 10 μM and 100 μM

Chain of HTR2B (P41595 whole entry): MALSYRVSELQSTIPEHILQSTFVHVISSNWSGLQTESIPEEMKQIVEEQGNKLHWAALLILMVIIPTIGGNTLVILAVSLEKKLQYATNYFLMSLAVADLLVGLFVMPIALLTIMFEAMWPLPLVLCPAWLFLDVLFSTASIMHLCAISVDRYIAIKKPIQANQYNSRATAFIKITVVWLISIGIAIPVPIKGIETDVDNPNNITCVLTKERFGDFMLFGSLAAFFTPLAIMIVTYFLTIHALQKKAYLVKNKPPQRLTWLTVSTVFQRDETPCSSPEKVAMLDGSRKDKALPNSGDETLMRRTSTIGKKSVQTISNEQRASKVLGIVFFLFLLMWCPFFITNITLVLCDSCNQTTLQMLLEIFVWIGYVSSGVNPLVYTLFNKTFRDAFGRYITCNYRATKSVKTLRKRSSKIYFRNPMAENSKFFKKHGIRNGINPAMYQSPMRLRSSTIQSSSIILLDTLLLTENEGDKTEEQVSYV

IC50 (AR) | inhibition at 10 µM (OATP1B1) | IC50 (HTR2B) | concentration at 1 h ([1]; male, plasma, po, 10 mg/kg, time 1.00 h, read-out: Plasma Conc.) | concentration at 8 h ([1]; male, plasma, po, 10 mg/kg, time 8.00 h, read-out: Plasma Conc.) | concentration at 24 h ([1]; male, plasma, po, 10 mg/kg, time 24.0 h, LLOQ 0.100 ng/mL, read-out: Plasma Conc.) | Plasma Conc. ([1]; time 0.500 h) | Plasma Conc. ([1]; time 1.00 h) | Plasma Conc. ([1]; time 2.00 h) | Plasma Conc. ([1]; time 4.00 h) | Plasma Conc. ([1]; time 8.00 h) | Plasma Conc. ([1]; time 24.0 h, LLOQ 0.100 ng/mL) | Compound | doubling compared with that seen with the vehicle (YUMM1.7 melanoma cells) | Doublings (YUMM1.7 melanoma cells) | cell count after 4 days of growth (single replicates) (YUMM1.7 melanoma cells) | average cell count after 4 days of growth (YUMM1.7 melanoma cells) | CYP1A2 induction (CYP1A2) | CYP3A4 induction (CYP3A4)
4.76 µM | 91.2% |  |  |  |  |  |  |  |  |  |  | CC(=O)c1ccc2c(c1)[C@H]1C=CC[C@H]1[C@@H](c1cc3c(cc1Br)OCO3)N2 [RSS G-1, 1-((3aR,4S,9bS)-4-(6-bromobenzo[d][1,3]dioxol-5-yl)-3a,4,5,9b-tetrahydro-3H-cyclopenta[c]quinolin-8-yl)ethan-1-one] | approximately the same number of doublings as the vehicle | 7.9 | 83 tens of thousands and 94 tens of thousands and 79 tens of thousands and 111 tens of thousands and 107 tens of thousands | 94.8 tens of thousands | induced at both 10 μM and 100 μM in 2 of the 3 cell lines | 
 | 82.5% | 8.2 µM | 3.96 ng/mL | 1.72 ng/mL | 0.127 ng/mL | 1.91 ng/mL and 2.60 ng/mL and 1.23 ng/mL | 6.03 ng/mL and 3.15 ng/mL | 2.96 ng/mL and 7.56 ng/mL and 2.71 ng/mL | 2.18 ng/mL and 4.67 ng/mL and 1.39 ng/mL | 1.58 ng/mL and 1.47 ng/mL | 0.169 ng/mL and BQL | CC(=O)c1ccc2c(c1)[C@@H]1C=CC[C@@H]1[C@H](c1cc3c(cc1Br)OCO3)N2 (single isomer, unassigned) [SRR G-1] | less than 1/10 | 0.6 | 2 tens of thousands (3×) and 3 tens of thousands (2×) | 2.4 tens of thousands | induced at both 1 μM and 10 μM in only 1 of the 3 cell lines | induced at only 10 μM in 2 of the 3 cell lines
